Values quoted from earlier work as cited in patent US4230714A, “Imidazole therapeutic agents” (Pfizer Inc., priority 1978, dated 1980).

What was measured:
[1] = system: platelet clumping and embolization in the lungs; conditions: rabbit, intravenous arachidonic acid
[2] = system: human blood platelet aggregation; conditions: variety of aggregating agents
aggregation of platelets = conditions: rat, extra corporeal loop of the abdominal aorta

Structure (SMILES)	protection from the lethal effect of arachidonic acid injection [1]	inhibitory activity against platelet aggregation in vitro [2]	prevention of platelet aggregation in vivo (aggregation of platelets)
CC(=O)Oc1ccccc1C(=O)O [aspirin]	protect the rabbit from the lethal effect of the injection	show inhibitory activity in vitro	
O=C1C(CC[S+]([O-])c2ccccc2)C(=O)N(c2ccccc2)N1c1ccccc1 (stereo not shown) [sulphinpyrazone]		show inhibitory activity in vitro	prevent the aggregation of platelets
